Experimental findings from patent US20120219952A1, “CARBAPENEMASE AND ANTIBACTERIAL TREATMENT” (priority 2009, published 2012) are described below.

As a reminder, the Km is the substrate concentration at which the rate is half of its maximum.

For data set [1], the system named is P. stutzeri clinical isolate 13. The experiment in a line: Routine antibiogram by disk diffusion assay. Particulars: clinical isolate P. stutzeri 13 expressing DIM-1. It is filed as cell-based, Pseudomonas stutzeri. On the procedure:
Bacterial strains. P. stutzeri clinical isolate 13 was identified with the API-20 NE system (BioMérieux, Marcy l'Etoile, France), and confirmed by rRNA sequencing. Escherichia coli TOP10 (In Vitrogen, Carlsbad, Calif.)was the host for cloning experiments (Poirel et al., 2001)
(§1) Susceptibility testing. Antibiotic-containing disks were used for routine antibiograms by the disk diffusion assay (Sanofi-Diagnostic Pasteur, Marnes-la-Coquette, France). The ESBL double-disk synergy test was performed with disks containing ceftazidime or cefepime and ticarcillin-clavulanic acid on Mueller-Hinton agar plates, and the results were interpreted as described previously (Poirel, Le Thomas et al., 2000). The carbapenemase detection was performed by using Etest carbapenem-containing strips (AB Biodisk, Solna, Sweden).

The test system of data set [2] is P. stutzeri 13. The experiment in a line: MICs by agar dilution technique. In kind it is cell-based, Pseudomonas stutzeri. Particulars: for β-lactam susceptibility from MICs: agar dilution, 37° C., 18 h; for restoration of susceptibility to penicillins on addition of inhibitor: clavulanic acid 2 μg/ml, tazobactam 4 μg/ml. The procedure: (§2) MICs were determined by an agar dilution technique with Mueller-Hinton agar (Sanofi-Diagnostic Pasteur) with an inoculum of 10^4 CFU/ml, as described previously (Poirel, Le Thomas et al., 2000). All plates were incubated at 37° C. for 18 h at ambient atmosphere. MICs of β-lactams were determined alone or in combination with a fixed concentration of clavulanic acid (2 μg/ml), tazobactam (4 μg/ml), and sulbactam (4 μg/ml). MIC results were interpreted according to the guidelines of the National Committee for Clinical Laboratory Standards (NCCLS) (CLSI).
On the technique in general: In agar dilution the substance is mixed into plates at graded concentrations.

In a further data set the target is carbapenemase DIM-1 (Stutzerimonas stutzeri, UniProt D5JGF6). The experiment in a line: Kinetic measurements with purified carbapenemase (hydrolysis of β-lactams). In kind it is biochemical, P. stutzeri. Particulars: purified DIM-1, 30° C., 100 mM sodium phosphate pH 7.0. From the text:
(§3) Carbapenemase purification and isoelectric focusing (IEF) analysis. […] Carbapenemase was purified by ion-exchange chromatography.

Another data set concerns E. coli DH10B(pXD-1). In words: MICs by agar dilution technique. In kind it is cell-based, Escherichia coli. Particulars: for β-lactam susceptibility from MICs: agar dilution, 37° C., 18 h; for restoration of susceptibility to penicillins on addition of inhibitor: clavulanic acid 2 μg/ml, tazobactam 4 μg/ml. On the procedure:
as §2

The test system of data set [3] is P. stutzeri 13. The experiment in a line: Carbapenemase detection with Etest carbapenem-containing strips. In kind it is cell-based, Pseudomonas stutzeri. Particulars: imipenem alone vs with EDTA. On the procedure: as §1
Data set [4] concerns CC(C)(O/N=C(\C(=O)N[C@@H]1C(=O)N2C(C(=O)[O-])=C(C[n+]3ccccc3)CS[C@H]12)c1csc(N)n1)C(=O)O. In words: Kinetic measurements with purified carbapenemase (hydrolysis of β-lactams). In kind it is biochemical, P. stutzeri. Particulars: other: purified DIM-1, 30° C., 100 mM sodium phosphate pH 7.0.
Text: as §3

Data set [5] can be described thus: Specific activity of purified carbapenemase (imipenem hydrolysis). In kind it is biochemical. Particulars: purified enzyme; 1 U = 1 μmol of imipenem hydrolyzed per min per mg of protein. The procedure: The specific activity of the purified carbapenemase from E. coli DH10B(pXD-1) was obtained as described previously (Poirel et al., 1999). One unit of enzyme activity was defined as the activity which hydrolyzed 1 μmol of imipenem per min per mg of protein. The total protein content was measured with the DC Protein assay kit (Bio-Rad, Ivry-sur-Seine, France).

Take `NCC[C@H](O)C(=O)N[C@@H]1C[C@H](N)[C@@H](O[C@H]2O[C@H](CN)[C@@H](O)[C@H](O)[C@H]2O)[C@H](O)[C@H]1O[C@H]1O[C@H](CO)[C@@H](O)[C@H](N)[C@H]1O` [amikacin]: in data set [1], the “susceptibility of P. stutzeri 13” value is “susceptible”.
As for `C[C@H]1[C@H](NC(=O)/C(=N\OC(C)(C)C(=O)O)c2csc(N)n2)C(=O)N1S(=O)(=O)O` [aztreonam], the “β-lactam susceptibility from MICs” value in the data set with P. stutzeri 13 [2] and in the data set on E. coli DH10B(pXD-1) was “spared” throughout. For the same molecule, the “susceptibility of P. stutzeri 13” value in data set [1] is listed as “fully susceptible”. The “hydrolysis by DIM-1 (relative hydrolysis rates, substrate profile)” value (“relative hydrolysis rates” below) on carbapenemase DIM-1 was “excluding”.
With `CO/N=C(\C(=O)N[C@@H]1C(=O)N2C(C(=O)[O-])=C(C[N+]3(C)CCCC3)CS[C@H]12)c1csc(N)n1` [cefepime], the “susceptibility of P. stutzeri 13” value in data set [1] is on record as “reduced susceptibility”.
As for `CO/N=C(\C(=O)N[C@@H]1C(=O)N2C(C(=O)O)=C(COC(C)=O)CS[C@H]12)c1csc(N)n1` [cefotaxime], on carbapenemase DIM-1, the “relative hydrolysis rates” value is listed as “hydrolyzed at a similar level as benzylpenicillin”.
Still for that read-out and setting: in the case of `CO[C@@]1(NC(=O)Cc2cccs2)C(=O)N2C(C(=O)O)=C(COC(N)=O)CS[C@@H]21` [cefoxitin] it was “good substrate”.
For `CO/N=C(\C(=O)N[C@@H]1C(=O)N2C(C(=O)[O-])=C(C[n+]3cccc4c3CCC4)CS[C@H]12)c1csc(N)n1` [cefpirome], in data set [1], the “susceptibility of P. stutzeri 13” value is “reduced susceptibility”.
For `CC(C)(O/N=C(\C(=O)N[C@@H]1C(=O)N2C(C(=O)[O-])=C(C[n+]3ccccc3)CS[C@H]12)c1csc(N)n1)C(=O)O` [ceftazidime], the “susceptibility of P. stutzeri 13” value in data set [1] was “reduced susceptibility”. The “relative hydrolysis rates” value at carbapenemase DIM-1 is listed as “well hydrolyzed”.
Take `O=C(N[C@H](CO)[C@H](O)c1ccc([N+](=O)[O-])cc1)C(Cl)Cl` [chloramphenicol]: the “susceptibility of P. stutzeri 13” value in data set [1] was “resistant”.
For the molecule `O=C(O)[C@H]1/C(=C/CO)O[C@@H]2CC(=O)N21` [clavulanic acid], the “restoration of susceptibility to penicillins on addition of inhibitor” value in the data set on P. stutzeri 13 [2] and with E. coli DH10B(pXD-1) was “did not restore any susceptibility to penicillins” in each case.
With `C[C@@H](O)[C@H]1C(=O)N2C(C(=O)O)=C(SCCN=CN)C[C@H]12` [imipenem], the “MIC (carbapenem-containing E-test)” value with P. stutzeri 13 [3] is 64 µg/mL.
Take `C[C@@H](O)[C@H]1C(=O)N2C(C(=O)O)=C(S[C@@H]3CN[C@H](C(=O)N(C)C)C3)[C@H](C)[C@H]12` [meropenem]: the “β-lactam susceptibility from MICs” value in the data set with P. stutzeri 13 [2] and in the data set with E. coli DH10B(pXD-1) was “reduced susceptibility” throughout.
For `CCN[C@@H]1C[C@H](N)[C@@H](O[C@H]2OC(CN)=CC[C@H]2N)[C@H](O)[C@H]1O[C@H]1OC[C@](C)(O)[C@H](NC)[C@H]1O` [netilmicin], in data set [1], the “susceptibility of P. stutzeri 13” value was “susceptible”.
Same read-out and setting: in the case of `CCN1CCN(C(=O)N[C@@H](C(=O)N[C@@H]2C(=O)N3[C@@H]2SC(C)(C)[C@@H]3C(=O)O)c2ccccc2)C(=O)C1=O` [piperacillin] it was “resistant”.
In the case of `C[C@]1(Cn2ccnn2)[C@H](C(=O)O)N2C(=O)C[C@H]2S1(=O)=O` [tazobactam], the “restoration of susceptibility to penicillins on addition of inhibitor” value with P. stutzeri 13 [2] and in the data set on E. coli DH10B(pXD-1) was “did not restore any susceptibility to penicillins” each time.
For `CC1(C)S[C@@H]2[C@H](NC(=O)[C@H](C(=O)O)c3ccsc3)C(=O)N2[C@H]1C(=O)O` [ticarcillin], the “susceptibility of P. stutzeri 13” value in data set [1] is reported as “resistant”.
On the same count and under the same terms, in the case of `NC[C@H]1O[C@H](O[C@H]2[C@H](O)[C@@H](O[C@H]3O[C@H](CO)[C@@H](O)[C@H](N)[C@H]3O)[C@H](N)C[C@@H]2N)[C@H](N)C[C@@H]1O` [tobramycin] it was “resistant”.
With “carbapenemase DIM-1 (Stutzerimonas stutzeri)”, the Michaelis constant (Km) in data set [4] worked out at 50 µM.
For the molecule colistin, in data set [1], the “susceptibility of P. stutzeri 13” value is listed as “susceptible”.
For the molecule gentamicin, the “susceptibility of P. stutzeri 13” value in data set [1] is “resistant”.
Still for that read-out and setting: the entry for piperacillin-tazobactam is “resistant”.

B1: DIM-1: Ambler class B carbapenemase (Dutch IMipenemase) from P. stutzeri 13, SEQ ID NO:1 (protein, listed as Pseudomonas stutzeri)
chain: MRTHFTALLLLFSLSSLANDEVPELRIEKVKENIFLHTSYSRVNGFGLVSSNGLVVIDKGNAFIVDTPWSDRDTETLVHWIRKNGYELLGSVSTHWHEDRTAGIKWLNDQSISTYATTSTNHLLKENKKEPAKYTLKGNESTLVDGLIEVFYPGGGHTIDNVVVWLPKSKILFGGCFVRSLDSEGLGYTGEAHIDQWSRSAQNALSRYSEAQIVIPGHGKIGDIALLKHTKSLAETASNKSIQPNANASAD
In the case of B1, the specific activity in data set [5] is on record as 21 U.mg of protein^−1.
